Consider four compounds from US20220298213A1, “IN VIVO ENGINEERED CEREBLON PROTEIN” (Vividion Therapeutics, Inc., priority 2018, published 2022).

The subject of experiment [1] is Protein-B. Put plainly: Cysteine probe labeling after IMiD pretreatment, PBMC lysates (Table 4). It counts as binding.
The test system of experiment [2] is Protein-C. The experiment is described as above. It counts as binding.
Experiment [3] has as its system Protein-A. As to conditions: PBMC lysates.
Experiment [4] addresses CRBN-287 (Homo sapiens, UniProt Q96SW2). Put plainly: Cysteine probe labeling after IMiD pretreatment, PBMC lysates (Table 4). It counts as binding. Set-up: endogenous in cells; host or cells: PBMC lysates. To be noted: read-out: inhibition of cysteine probe labeling, CRBN-287.
Experiment [5] concerns the target CRBN-318 (Homo sapiens, UniProt Q96SW2). The description is as above. It counts as binding. The arrangement: endogenous in cells; host or cells: PBMC lysates. To be noted: read-out: inhibition of cysteine probe labeling, CRBN-318.
In experiment [6] the target is T1, CRBN Cys188 (Homo sapiens, UniProt Q96SW2).
T1 construct: endogenous in cells
Briefly: Inhibition of iodoacetamide probe labeling of CRBN cysteines, cell lysate (Table 3A). It counts as binding. To be noted: 500 micromolar, cell lysate, 1 h. Here is the method:
(§1) “X@Y” means that x % inhibition of iodoacetamide probe labeling was observed by treatment of cell lysate with the give compound in each row of the table for 1 h at a concentration of y micromolar. There was consistently high inhibition at C318 in addition to C287, which can be attributed to an allosteric inhibition.

For experiment [7], the target named is T2, CRBN Cys205 (Homo sapiens, UniProt Q96SW2).
T2 construct: endogenous in cells
Described as above. The format is binding. As to conditions: cell lysate, 1 h. As to the method: as §1

Experiment [8] addresses T3, CRBN Cys219 (Homo sapiens, UniProt Q96SW2).
T3 construct: endogenous in cells
Described as above. The format is binding. To be noted: cell lysate, 1 h. As to the method:
as §1

The target in experiment [9] is T4, CRBN Cys287 (Homo sapiens, UniProt Q96SW2).
T4 construct: endogenous in cells
Described as above. It counts as binding. To be noted: cell lysate, 1 h; for inhibition at 500 µM: 500 micromolar. Here is the method: as §1

The target of experiment [10] is T5, CRBN Cys343 (Homo sapiens, UniProt Q96SW2).
T5 construct: endogenous in cells
Described as above. The format is binding. As to conditions: cell lysate, 1 h. As to the method: as §1

Experiment [11] addresses T6, CRBN Cys366 (Homo sapiens, UniProt Q96SW2).
T6 construct: endogenous in cells
The description is as above. It counts as binding. As to conditions: cell lysate, 1 h. Here is the method: as §1

Experiment [12] has as its target T7, CRBN Cys234 (Homo sapiens, UniProt Q96SW2).
T7 construct: endogenous in cells
The experiment is described as above. It counts as binding. To be noted: cell lysate, 1 h. As to the method: as §1

Experiment [13] has as its target T8, CRBN Cys318 (Homo sapiens, UniProt Q96SW2).
T8 construct: endogenous in cells
Described as above. The format is binding. To be noted: cell lysate, 1 h. Here is the method: as §1

The mark [14] stands for this setting: read-out: % inhibition of iodoacetamide probe labeling, Cys287.

Where two headings read alike, the source gives them in different places.

T7 sequence (Q96SW2 whole entry): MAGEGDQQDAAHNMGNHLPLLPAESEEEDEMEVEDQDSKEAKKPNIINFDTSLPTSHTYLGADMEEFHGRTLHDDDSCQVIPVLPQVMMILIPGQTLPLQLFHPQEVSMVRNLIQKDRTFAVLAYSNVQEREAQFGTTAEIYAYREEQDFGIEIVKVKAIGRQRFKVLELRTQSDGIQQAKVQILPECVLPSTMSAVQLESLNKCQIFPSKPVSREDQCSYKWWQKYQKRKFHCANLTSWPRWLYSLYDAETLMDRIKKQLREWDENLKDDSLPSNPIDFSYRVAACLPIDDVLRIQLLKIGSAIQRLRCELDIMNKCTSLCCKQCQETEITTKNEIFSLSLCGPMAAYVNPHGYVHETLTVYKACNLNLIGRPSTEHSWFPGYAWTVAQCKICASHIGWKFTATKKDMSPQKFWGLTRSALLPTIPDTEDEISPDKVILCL
T6 sequence (Q96SW2 whole entry): as above
T4 sequence (Q96SW2 whole entry): as above
Chain of CRBN-318 (Q96SW2 whole entry): as above
T8 sequence (Q96SW2 whole entry): as above
Chain of CRBN-287 (Q96SW2 whole entry): as above
T5 sequence (Q96SW2 whole entry): as above
T3 sequence (Q96SW2 whole entry): as above
T2 sequence (Q96SW2 whole entry): as above
T1 sequence (Q96SW2 whole entry): as above

As to `O=C1CCC(N2Cc3c(OCc4ccc(CN5CCOCC5)cc4)cccc3C2=O)C(=O)N1` (stereo not shown) [CC-220], the “inhibition of cysteine probe labeling, Protein-B” value came out at 23 in experiment [1] (2 μM), 11 in [1] (20 μM) and 17 in [1] (50 μM). For the same compound, the “inhibition of cysteine probe labeling, Protein-C” value came out at 0 in [2] (2 μM), 2 in experiment [2] (20 μM) and 0 in experiment [2] (50 μM). Also, the results for the “inhibition of cysteine probe labeling, Protein-A” value in experiment [3] (2 μM), in experiment [3] (20 μM) and in experiment [3] (50 μM) were 16, 19 and 13, respectively. The inhibition (usually the change of the read-out against control, counted positive when it falls) at 2 µM in experiment [4] worked out at 75%; in experiment [5], 70%. In addition, the inhibition at 20 µM in experiment [4] was determined as 77%; in [5], 70%. Besides, the inhibition at 50 µM in [4] turned out to be 81%; in [5], 72%.
For `C=CC(=O)N1CCC(Oc2cc(C(=O)N(C)C)cc(-c3ccccc3OC)c2)CC1` [Example A2], the inhibition at 500 µM was 9% in experiment [6]; 18% in experiment [7] (500 micromolar, read-out: % inhibition of iodoacetamide probe labeling, Cys205); 31% in [8] (500 micromolar, read-out: % inhibition of iodoacetamide probe labeling, Cys219); 91% in experiment [9] (setting [14]); -6% in experiment [10] (500 micromolar); 2% in experiment [11] (500 micromolar).
Take `CC(/C=C(\C#N)C(=O)N1CCC(c2ccccc2)C1)c1ccccc1` (stereo not shown) [Example A7]: the inhibition at 5 µM in experiment [7] (5 micromolar) was -42%; in experiment [8] (5 micromolar), -3%; in experiment [12] (5 micromolar) it was 19%; in experiment [13] (5 micromolar) it was 67%; in [10] (5 micromolar), 8%; in experiment [11] (5 micromolar) it was 3%. The inhibition at 50 µM in experiment [8] (50 micromolar) turned out to be 32%; in experiment [12] (50 micromolar), 32%; in [13] (50 micromolar), 69%; in experiment [10] (50 micromolar) it was 51%; in experiment [11] (50 micromolar), 26%. Also, the results for the inhibition at 0.5 µM in experiment [12] (0.5 micromolar), in experiment [13] (0.5 micromolar) and in experiment [11] (0.5 micromolar) were 12%, 39% and 3%, respectively. Moreover, the inhibition at 2 µM in experiment [9] (2.0 micromolar, read-out: % inhibition of iodoacetamide probe labeling, Cys287) came out at 71%. Besides, the inhibition at 7.8 µM in experiment [9] (7.8 micromolar) was determined as 72%. For the same compound, in [9] (31.2 micromolar, read-out: % inhibition of iodoacetamide probe labeling, Cys287), the inhibition at 31.2 µM turned out to be 95%. Further, the inhibition at 125 µM in experiment [9] (125 micromolar, read-out: % inhibition of iodoacetamide probe labeling, Cys287) was found to be 94%. In addition, the inhibition at 500 µM in experiment [9] (setting [14]) came to 92%.
Turning to `Nc1cccc2c1C(=O)N(C1CCC(=O)NC1=O)C2=O` (stereo not shown) [Pomalidomide], the results for the “inhibition of cysteine probe labeling, Protein-B” value in [1] (20 μM), in [1] (100 μM) and in experiment [1] (500 μM) were 0, 14 and 0, respectively. For the same compound, the entries for the “inhibition of cysteine probe labeling, Protein-C” value in experiment [2] (20 μM), in experiment [2] (100 μM) and in experiment [2] (500 μM) were 10, 1 and 10, respectively. The “inhibition of cysteine probe labeling, Protein-A” value is reported as 8 in experiment [3] (20 μM), 10 in experiment [3] (100 μM) and 13 in experiment [3] (500 μM). In addition, the inhibition at 100 µM in [4] was found to be 70%. For the same compound, the inhibition at 500 µM in experiment [4] came to 75%. Further, in experiment [5], the inhibition at 20 µM is 59%.
